Assay results: patent publication US11266711B2, “Oxytocin compositions and methods of use” (Elgan Pharma Ltd, priority 2018, dated 2022)
Counter-ions that a name gives are not always drawn. Numbered stars: 1 amine (or outer) side, 2 acyl side, 3 side chain; on linkers, the order of the positions; unused ones are H or OH. Bridge positions count the residues as written; N and C are the ends. Peptide text beside a SMILES is read from it. X1 = O=C(CCC[*:2])[*:1]

Legend:
[1] = cited from earlier work
[2] = test system: infants of mothers who took the drug during the first 42 days of pregnancy; conditions: mothers took the drug during the first 42 days of pregnancy; other drugs 4.6 per 100, no drugs 2.6 per 100; cited from earlier work
oxytocin receptor [3] = target: T1, oxytocin receptor (Homo sapiens, UniProt P30559); conditions: cited from earlier work
oxytocin receptor [4] = target: T1, oxytocin receptor; conditions: cited from earlier work; remark: listed apart in the source
[5] = test system: rat pups chronically exposed to morphine prenatally; assay: Naloxone-induced withdrawal in rat pups exposed to morphine prenatally (Example 1); assay type: in vivo, Sprague-Dawley rats
[6] = test system: rat pups chronically exposed to morphine prenatally; assay type: in vivo, Sprague-Dawley rats; conditions: 2 mg/kg s.c. daily, first 10 postnatal days; survival measured for 15 days; vs saline (FIG. 2a)
[7] = test system: rat pups chronically exposed to fluoxetine prenatally; assay: Survival and body weight, rat pups exposed to fluoxetine prenatally (Example 4); assay type: in vivo, Sprague-Dawley rats; conditions: 2 mg/kg s.c. daily
[8] = test system: adolescent rats chronically exposed to fluoxetine prenatally; assay: Passive Avoidance Test, adolescent rats exposed to fluoxetine prenatally (Example 5); assay type: in vivo; conditions: 2 mg/kg s.c. daily, first 10 postnatal days; tested postnatal days 31-35; vs saline (FIG. 5)
[9] = test system: adolescent rats chronically exposed to fluoxetine prenatally; assay: Locomotor activity, adolescent rats exposed to fluoxetine prenatally (Example 5); assay type: in vivo; conditions: 2 mg/kg s.c. daily, first 10 postnatal days; tested postnatal days 31-35; vs saline (data not shown)
[10] = test system: adolescent rats chronically exposed to fluoxetine prenatally; assay: Light/Dark Box, adolescent rats exposed to fluoxetine prenatally (Example 5); assay type: in vivo; conditions: 2 mg/kg s.c. daily, first 10 postnatal days; tested postnatal days 31-35; vs saline (data not shown)
[11] = test system: rat pups chronically exposed to morphine prenatally; assay type: in vivo, Sprague-Dawley rats; conditions: all three doses (0.3, 1, 2 mg/kg) s.c. daily, first 10 postnatal days; vs saline (FIG. 6a)
[12] = test system: rat pups chronically exposed to morphine prenatally; assay: Locomotor activity during withdrawal, rats exposed to morphine prenatally (Example 7); assay type: in vivo
[13] = test system: adolescent rats chronically exposed to morphine prenatally; assay: Light-Dark Box, adolescent rats exposed to morphine prenatally (Example 8); assay type: in vivo; conditions: 0.3 mg/kg s.c. daily, first 10 postnatal days; tested postnatal days 31-35; vs saline (FIG. 8a)
[14] = test system: adolescent rats chronically exposed to morphine prenatally; assay: Passive Avoidance Test, adolescent rats exposed to morphine prenatally (Example 8); assay type: in vivo; conditions: 2 mg/kg s.c. daily, first 10 postnatal days; tested postnatal days 31-35; vs saline (FIG. 8b)
[15] = test system: adolescent rats chronically exposed to morphine prenatally; assay: Automated Three-Chamber Test, adolescent rats exposed to morphine prenatally (Example 9); assay type: in vivo; conditions: first 10 postnatal days, tested postnatal days 31-35
Description: (§1) Briefly, the Three-Chamber Test assesses cognition in the form of social novelty and social memory; Social novelty occurs in three sessions within a three-chambered box with openings between the chambers. After habituation to the empty box, the test animal encounters a novel conspecific under one pencil cup and an empty pencil cup. The test animal then encounters the familiar conspecific and a second novel conspecific under the previously empty pencil cup; Animals that show intact social novelty behavior will show a preference to investigate the novel conspecific; Twenty-four hours later, social memory is tested by placing the test animal back in to the chamber with the two familiar conspecifics; Animals with intact social memory will spend an equal amount of time investigating the two familiar conspecifics. Duration of time spent investigating conspecifics is measured automatically using a SmartCage™.

[16] = test system: adolescent rats chronically exposed to diazepam prenatally; assay: Automated Three-Chamber Test, adolescent rats exposed to diazepam prenatally (Example 13); assay type: in vivo; conditions: first 10 postnatal days, tested postnatal days 31-35
Description: as §1

healthy rats = assay: Survival and body weight during development in healthy rats (Example 14); assay type: in vivo, Sprague-Dawley rats; conditions: 0.3, 1 or 2 mg/kg daily, first 10 postnatal days; drug naive pups
[17] = test system: rat pups chronically exposed to diazepam prenatally; conditions: 2 mg/kg s.c. daily, first 10 postnatal days
[18] = test system: adolescent rats chronically exposed to diazepam prenatally; assay: Light-Dark Box, adolescent rats exposed to diazepam prenatally (Example 12); conditions: 1 mg/kg and 2 mg/kg s.c., first 10 postnatal days; tested postnatal days 31-35; vs saline (FIG. 12a)
[19] = test system: adolescent rats chronically exposed to diazepam prenatally; assay: Passive Avoidance Test, adolescent rats exposed to diazepam prenatally (Example 12); conditions: all doses (0.3, 1, 2 mg/kg) s.c., first 10 postnatal days; tested postnatal days 31-35; vs saline (FIG. 12b)
Description: Briefly, in the Passive Avoidance Test an animal learns to avoid an unpleasant stimulus by inhibiting locomotion and exploration; On the training day, rats are placed in a brightly lit compartment of a test chamber; The animal quickly moves in to an adjacent dark compartment of the test chamber and receives an unavoidable mild foot shock; Twenty-four hours later during the test phase, the animals are again placed in to the light compartment and the latency to re-enter the dark compartment is measured. Latency to enter a compartment is automatically measured using a SmartCage™.

[20] = test system: rat pups chronically exposed to diazepam prenatally; assay: Locomotor activity during withdrawal, rats exposed to diazepam prenatally (Example 11)
Description: Briefly, locomotor activity is measured by placing an animal in to a small standardized test chamber for a five-minute period. Distance travelled, and time spent active is measured automatically using a SmartCage™.

[21] = test system: rat pups chronically exposed to diazepam prenatally; assay: Survival and body weight, three oxytocin doses, rat pups exposed to diazepam prenatally (Example 10); conditions: first 10 postnatal days
[22] = 1 or 2 mg/kg s.c. daily, vs saline (FIG. 7a)

T1 sequence (P30559 whole entry, species assumed): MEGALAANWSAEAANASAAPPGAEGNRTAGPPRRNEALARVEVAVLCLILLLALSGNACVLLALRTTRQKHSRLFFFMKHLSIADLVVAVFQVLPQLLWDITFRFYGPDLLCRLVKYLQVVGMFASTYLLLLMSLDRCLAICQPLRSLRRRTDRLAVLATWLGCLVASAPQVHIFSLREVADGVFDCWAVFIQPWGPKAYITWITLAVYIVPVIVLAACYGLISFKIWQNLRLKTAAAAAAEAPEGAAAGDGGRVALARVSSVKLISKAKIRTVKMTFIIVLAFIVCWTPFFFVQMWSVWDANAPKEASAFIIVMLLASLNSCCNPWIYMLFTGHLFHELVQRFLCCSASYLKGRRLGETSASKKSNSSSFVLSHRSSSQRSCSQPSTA

In the case of `Cc1nnc2n1-c1ccc(Cl)cc1C(c1ccccc1)=NC2` [Alprazolam], the half-life ([1]; in vivo) is given as “ten to 24”.

In the case of `CNC1=Nc2ccc(Cl)cc2C(c2ccccc2)=[N+]([O-])C1` [chlordiazepoxide, Chlordiazepoxide hydrochloride], the “severe congenital anomalies among infants” value [2] is listed as 11.4 per 100.

For `CC[C@H](C)[C@@H]1NC(=O)[C@H](Cc2ccc(OC)cc2)NC(=O)CCCSC[C@@H](C(=O)N2CCC[C@H]2C(=O)N[C@@H](CC(C)C)C(=O)NCC(N)=O)NC(=O)[C@H](CC(N)=O)NC(=O)[C@H](CCC(N)=O)NC1=O` [carbetocin, 1-Butanoic acid-2-(O-methyl-L-tyrosine)-1-carbaoxytocin] (Y(Me)IQNCPLG-NH2; linker N-5 via X1), the “affinity of the oxytocin receptor, compared with oxytocin” value (oxytocin receptor [3]) is listed as “equal affinity” and the “biological effect relative to endogenous or exogenous oxytocin” value (oxytocin receptor [4]) is listed as roughly 50%.

With `CC[C@H](C)[C@@H]1NC(=O)[C@H](Cc2ccc(O)cc2)NC(=O)[C@@H](N)CSSC[C@@H](C(=O)N2CCC[C@H]2C(=O)N[C@@H](CC(C)C)C(=O)NCC(N)=O)NC(=O)[C@H](CC(N)=O)NC(=O)[C@H](CCC(N)=O)NC1=O` [oxytocin] the locomotor activity ([5]; single dose 2 mg/kg s.c. after naloxone, postnatal day one, up to 30 minutes post-naloxone, vs saline (FIG. 1a)) was “clear statistically significant reduction”, the “scores of rolling behavior” value ([5]; single dose 2 mg/kg s.c., up to 45 minutes, vs saline (FIG. 1b)) was “numerical reduction” and the “scores of curling behavior” value ([5]; single dose 2 mg/kg s.c., up to 45 minutes, vs saline (FIG. 1c)) was “numerical reduction”. For the same molecule, the “percentage survival rates at postnatal day 10” value ([5]; single dose 2 mg/kg s.c., vs saline (FIG. 1d)) was “improved percentage survival rates”, the percentage survival rates [6] was “clear statistically significant improvement” and the percentage survival rates ([7]; first 10 postnatal days, survival measured for 15 days, vs saline (FIG. 4a)) was “statistical trend towards improvement”. For the same molecule, the “body weight at postnatal day 36” value ([7]; first 10 postnatal days, vs saline (FIG. 4c)) was “clear statistically significant reduction”, the “body weights during the first 10 postnatal days” value ([7]; vs saline (FIG. 4b)) was “comparable” and the “learning and memory function (latency to enter chamber paired with foot shock)” value (from here on “learning and memory function”) [8] was “clear statistically significant improvement”. The locomotor activity [9] was “No meaningful differences”, the anxiety-like behavior [10] was “No meaningful differences” and the “percentage survival rates for the first 30 postnatal days” value [11] was “clear statistically significant improvement”. For the same molecule, the “locomotor activity at postnatal day 30” value ([12]; 0.3, 1 or 2 mg/kg s.c. daily, first 10 postnatal days, between treatment groups (FIG. 7b)) was “No meaningful differences”, the “locomotor activity on postnatal day 6” value [12, 22] was “clear statistically significant increase” and the “locomotor activity on postnatal days 3 or 9” value [12, 22] was “not on postnatal days 3 or 9”. For the same molecule, the “anxiety-like behavior (time in the light chamber)” value [13] was “clear statistically significant decrease”, the “learning and memory function” value [14] was “numerical improvement” and the “social memory function (time investigating a familiar conspecific)” value ([15]; 2 mg/kg s.c. daily, vs saline (FIG. 9b)) was “statistical trend towards improved social memory function”. For the same molecule, the “social novelty behavior (time investigating a novel conspecific)” value ([15]; all doses (0.3, 1, 2 mg/kg) s.c. daily, vs saline (FIG. 9a)) was “trend towards increased social novelty behavior”, the “social memory function (time investigating a familiar conspecific)” value ([16]; 2 mg/kg s.c. daily, vs saline (FIG. 13b)) was “statistical trend toward improved social memory function” and the “social novelty behavior (time investigating a novel animal)” value ([16]; 1 and 2 mg/kg s.c. daily, vs saline (FIG. 13a)) was “clear statistically significant increase”. For the same molecule, the “survival for the first 30 postnatal days” value (healthy rats) was “survived for the first 30 postnatal days”, the percentage survival rates ([17]; survival measured for 15 days, vs saline (FIG. 3a)) was “clear statistically significant improvement” and the “body weight, various time points of the dosing period” value ([17]; vs saline (FIG. 3b)) was “clear statistically significant increase”. For the same molecule, the “body weight at postnatal day 31” value ([17]; vs saline (FIG. 3c)) was “clear statistically significant decrease”, the “anxiety-like behavior (time in the light chamber)” value [18] was “clear statistically significant reduction” and the “learning and memory function” value [19] was “clear statistically significant improvement”. The “locomotor activity on postnatal day 6” value ([20]; 0.3 mg/kg and 2 mg/kg s.c. daily, vs saline (FIG. 11a)) was “clear statistically significant decrease”, the “locomotor activity on postnatal day 30” value ([20]; 2 mg/kg s.c. daily, first 10 postnatal days, vs saline (FIG. 11b)) was “clear statistically significant decrease” and the “locomotor activity on postnatal day 9” value ([20]; 2 mg/kg s.c. daily, vs saline (FIG. 11a)) was “clear statistically significant decrease”. The “locomotor activity on postnatal days 3 and 6” value ([20]; all three doses (0.3, 1, 2 mg/kg) s.c. daily, vs saline) was “clear statistically significant decrease”, the “percentage survival rates for the first 30 postnatal days” value ([21]; 2 mg/kg s.c. daily, vs saline (FIG. 10a)) was “clear statistically significant improvement” and the “body weight throughout the first 30 postnatal days” value ([21]; all three doses (0.3, 1, 2 mg/kg) s.c. daily, vs saline (FIG. 10b)) was “clear statistically significant decrease”.

In the case of `O=C1Nc2ccc(Cl)cc2C(c2ccccc2Cl)=NC1O` (centres unmarked) [Lorazepam], the half-life in adults ([1]; adults) is given as “about 12 hours”.
